From PMC10451034, “Highly Efficient Photosensitizers with Molecular Vibrational Torsion for Cancer Photodynamic Therapy” (ACS Central Science, 2023)

Columns and labels:
HepG2 cells = test: MTT cytotoxicity assay, HepG2; type: cell-based, human; details: Homo sapiens, HepG2, light or radiation study, HepG2, 660 nm irradiation 12 J/cm^2
From the text: To further quantitatively explore the in vitro anticancer potency of QTCy7-R, the methyl thiazolyltetrazolium (MTT) assay was employed to detect cell viability. […] Next, we evaluated the cytotoxicity under dark conditions of this series of compounds at high concentrations (Figure 9e), as due to the characteristics of mitochondrial accumulation, QTCy7-Me and QTCy7-Ph might lead to mitochondrial depolarization and apoptosis at high concentrations. However, its IC50 value could still reach about 60 μM, which was almost […] than those of all cyanine photosensitizers reported. […] The photocytotoxicity index value (dark IC50/light IC50) of QTCy7-Ac was >500, manifesting that QTCy7-Ac is a PS with high efficacy but low cytotoxicity, which is extremely promising in clinical application. […]
Cytotoxicity was tested by the reduction of methyl thiazolyl tetrazolium to formazan by succinic acid dehydrogenase in the mitochondria of living cells (MTT assay). HepG2 cells, MCF7 cells and 4T1 cells were seeded to 96-well microplates (Nunc, Denmark) with a density of 1 × 10^5 cells/mL cells in 100 μL DMEM medium and incubated at 37 °C for 24 h. When the cell density reached about 70%, the QTCy7-R with different concentrations (4, 3, 2, 1.5, 1, 0.75, 0.5, 0.25, 0 μM) in PBS were added to the wells of cells in dark condition, respectively. For light groups, the cell incubation conditions were the same as those of the dark group and the cells were further incubated for 2 h, subsequently, the cells were subjected to 660 nm irradiation (20 mW/cm2) for different time (10 min, 5 min and 2.5 min) corresponding to different light doses (12 J/cm2, 6 J/cm2 and 3 J/cm2). Then all the cells were incubated for 12 h, after which the MTT solution in DMEM (0.5 mg/ml, 100 μL) was added to each well and the cells were incubated at 37 °C for another 4 h. The MTT solution was carefully removed and 100 μL DMSO was added to dissolve formazan, and the absorbance of each well was measured by a multifunctional microplate reader at 570 nm and 630 nm. The cell viability was obtained by the following equation: […]
Where “OD” represent the absorbance at 570 nm and 630 nm, “ps” and “control” represent experimental groups and control groups, respectively. […]

[1] = Singlet oxygen quantum yield by DPBF decay curve method; type: physicochemical; details: in dichloromethane
Procedure: Afterward, the singlet oxygen yields of the series of molecules were preliminarily measured and analyzed by the 1,3-diphenylisobenzofuran (DPBF) decay curve method (Figures 2d,e and S2). […] Meanwhile, in order to exclude the effect of the rigid structure, ΦΔ of a Cy7-like reference molecule (TCy7C) with a rigidified structure but absence of an oxygen atom was measured. The singlet oxygen yield of TCy7C was 2.2%, even lower than that of TCy7 under the same conditions (Figure S3). […]
Photoexcited singlet oxygen production was detected by employed 1,3-diphenylisobenzofuran (DPBF) as the indicator. The absorbance of DPBF at 415 nm was regulated to about 1.0 in DCM. And the samples were irradiated with 660 nm light for various times, then the absorption spectra of different time nodes were recorded.
The singlet oxygen quantum yield (ΦΔ) was calculated by the following equation:
Where “Φ” represent the singlet oxygen quantum yield , “sam” and “std” represent QTCy7-R and MB, respectively. “m” is the slope of the absorbance of DPBF at 415 nm with time, F=1–10-O.D. (O.D. is the absorbance of samples at 660 nm). […]

[2] = UV-vis absorption, fluorescence emission, absolute fluorescence quantum yield and fluorescence lifetime; type: physicochemical
Procedure: First, the UV–vis absorption and fluorescence emission spectra of the series of compounds were measured and analyzed. […] Concurrently, the Stokes shifts of all four compounds were more than 60 nm (Figure 2a,b and Table 1), which could effectively improve the signal-to-noise ratio (SNR) of fluorescence compared to the ordinary TCy7. The fluorescence lifetimes of all four compounds were within 2 ns, indicating no delayed fluorescence generation (Figure 2c and Table 1). […]
Materials and Instrumentation
All the general chemicals used in this paper are purchased from Energy Chemical Co. and Innochem Chemical Co. unless otherwise specified. All solvents were […]
analytically pure. […]
All the other solvents and reagents used in this study were of analytical grade. All the BALB/c mice were purchased from Liaoning […]
III 500 spectrometers. Absorption and emission spectra for all the compounds were achieved on the Agilent Technologies CARY 60 UV -Vis spectrophotometer and VAEIAN CARY Eclipse fluorescence spectrop hotometer (Serial No. FL0812 -M018), […]
respectively. Unless otherwise specified, all spectroscopic tests were performed in a quartz cell (10×10 mm). Fluorescence quantum yield of all the compounds were measured on the HAMAMATSU absolute fluorescence quantum yield spectrometer (Serial No. C11347). Triplet lifetime of compounds were acquired on LP980 laser flash photolysis spectrometer (Edinburgh Instruments, U.K.). The cell confocal laser scanning microscope (CLSM) images were all obtained by using Olympus FV3000 confocal laser scanning microscope. […]
Figure 4, Figure S6 and Figure S7). The spin-orbital coupling (SOC) values between the S1/S1V and T2 were calculated with ORCA 4.13. Hole-Electron analysis was carried […]
ISC rate constants calculation […]
Triplet lifetime measurements
The triplet life of QTCy7-R was measured by LP980 laser flash photolysis spectrometer (Edinburgh Instruments Ltd.) in combination with a Nd:YAG laser (Surelite I-10, Continuum Electro-Optics, Inc.). The oxygen in the sample was removed by aerating nitrogen for 30 min. The samples (5 μM) were excited by a 610 nm laser pulse (1 Hz, 100 mJ per pulse, fwhm ≈ 7 ns) at 300 K. The triplet state decay kinetics were measured at the maximum absorption wavelengths of each compound.
Fluorescence lifetime and femtosecond time-resolved transient absorption spectra […]
The fluorescence lifetimes and femtosecond time-resolved transient absorption spectra of dyes were recorded on a freshly prepared samples using the time-correlated single photon counting (TCSPC) method (PicoQuant PicoHarp 300) at 300 K. The concentration is 10 μM, solvent is DCM.
Hepatoma carcinoma cells (HepG-2 cells), human mammary carcinoma (MCF-7) and mouse breast cancer cells (4T1) were maintained in Dulbecco’s modified Eagle’s

Structure (SMILES) | IC50 (HepG2 cells) [µM] | ΦΔ, singlet oxygen yield ([1]; DPBF method) [%] | ΦΔ, singlet oxygen quantum yield ([1]; methylene blue as standard, 660 nm irradiation) | ΦF, absolute fluorescence quantum yield [2] [%] | Δλ, Stokes shift ([2]; in dichloromethane) [nm] | λabs, maximum absorption wavelength ([2]; in dichloromethane) [nm] | λem, maximum emission wavelength ([2]; in dichloromethane) [nm] | τS, fluorescence lifetime ([2]; in dichloromethane) [ns]
C=Cc1c(C)c2cc3nc(c(CC(=O)O)c4[nH]c(cc5nc(cc1[nH]2)C(C)=C5CC)c(C)c4C(=O)O)[C@@H](CCC(=O)O)[C@@H]3C [Ce6, chlorin e6, reference compound] | 3.5 |  |  |  |  |  |  | 
CCN1/C(=C/C=C/C=C/C=C/c2sc3ccccc3[n+]2CC)Sc2ccccc21 [TCy7, reference compound] |  | 2.6 | 0.026 | 19.3 | 23 | 770 | 793 | 1.54
